Peptide text beside a SMILES is read from it.
Assays:
[1] = system: Neonatal foreskin primary human epidermal melanocytes; test: Cell viability by the calcein method; type: cell-based
Procedure: (§1) All test compounds were purchased from SIGMA-ALDRICH as stocks of 10 mM in 100% DMSO. They were tested at various concentrations in cell culture (see below). Forskolin (SIGMA Cat. #F6886) and IBMX (SIGMA Cat. #I5879) were used as reference comparators, as they have been reported to increase melanin content. Neonatal foreskin primary human epidermal melanocytes were procured from Cascade Biologicals (labelled passage P0). Melanocytes were maintained in Medium 254CF (Cascade Cat. #M-254CF-500) supplemented with human melanocyte growth supplement (Cascade; Cat. #S-002-5), hereafter referred to as MGM. Cells were maintained at 37° C. in a humidified incubator with 5% CO2 atmosphere.
(§2) 50,000 cells were seeded in 24 well plate in MGM; after 24 hours, cultures were treated with various concentrations of the test materials and left undisturbed for a further period of 72 hours. Comparative vehicle controls of 0.25% (v/v) DMSO were also set up in parallel, simultaneously. At the end of the incubation period, cell viability was determined using the calcein method.
Briefly, cell culture spent media was removed and cells washed once with 0.4 ml of 1×PBS—Ca—Mg solution. Fresh 1 μM calcein-AM was added (0.2 ml/well), including to control wells without cells. Plates were covered with aluminium foil and incubated for 30 minutes. at 37° C. in the regular CO2 incubator. Calcein fluorescence was then measured (λmax 490 nm and λmax 520 nm) in TECAN® M1000 Infinite series plate reader.
(§3) Calcein fluorescence values were ratio converted in 0 to 100 scale (% viability), with 100 representing the value of the 0.25% DMSO sample. % Melanin content was calculated as the ratio between OD405nm value of any sample to that of DMSO reference sample. Normalized melanin content value was then calculated as 100*(% Melanin Content)/(% Cellular viability).

[2] = system: Neonatal foreskin primary human epidermal melanocytes; test: Melanin content assay (OD405 nm of cell lysate); type: cell-based; conditions: for % Melanin / OD405 nm / % Increase in Melanin / Normalized melanin content / Normalized melanin content at 0.25 µM: 72 hours; for Normalized melanin content at 0.25 µM: Homo sapiens, Melanocyte, read-out: Normalized melanin content, 100*(% Melanin Content)/(% Cellular viability); for Increase in melanin content of melanocytes (in words): data of Table 2
Procedure: as §1, §2
After calcein fluorescence readings were obtained, cells were drained and added fresh 125 μl of 1N NaOH (in 10% DMSO) per well. Cells were lysed by resuspension and incubation (60° C./1 hour). Then this lysate was transferred to a fresh […] and measured OD405 nm in a TECAN M1000 plate reader (estimate of relative melanin content).
as §3
The percentage Increase in melanin content was estimated as [(Normalized melanin content)−100]

[3] = biological target: T1, Tyrosinase (Homo sapiens, UniProt P14679); test: Tyrosinase assay; type: biochemical; conditions: 0.25 μM
T1 sequence (P14679 19-529): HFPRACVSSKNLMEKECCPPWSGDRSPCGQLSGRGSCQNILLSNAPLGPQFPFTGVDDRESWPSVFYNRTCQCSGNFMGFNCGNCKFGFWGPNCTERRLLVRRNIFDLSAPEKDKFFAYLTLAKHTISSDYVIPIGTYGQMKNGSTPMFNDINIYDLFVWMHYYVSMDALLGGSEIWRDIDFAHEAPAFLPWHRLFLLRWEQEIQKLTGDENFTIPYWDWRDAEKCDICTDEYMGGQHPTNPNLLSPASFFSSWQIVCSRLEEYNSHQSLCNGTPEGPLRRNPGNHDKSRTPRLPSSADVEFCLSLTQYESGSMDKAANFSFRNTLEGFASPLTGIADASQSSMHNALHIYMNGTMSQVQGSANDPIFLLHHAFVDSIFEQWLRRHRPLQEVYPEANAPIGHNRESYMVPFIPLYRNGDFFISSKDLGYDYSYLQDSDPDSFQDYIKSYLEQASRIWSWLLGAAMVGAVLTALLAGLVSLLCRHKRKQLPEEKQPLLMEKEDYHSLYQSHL

[4] = 0.25 μM, relative to DMSO control
[5] = 0.25 μM, normalized melanin content minus 100

Structure (SMILES) | % increase in Tyrosinase activity [3] [%] | % Viability ([1]; human, 72 h, 0.25 μM) [%] | % Viability ([1]; human, 72 h, 3.125 μM) [%] | % Viability ([1]; human, 72 h, 6.25 μM) [%] | % Viability ([1]; human, 72 h, 12.5 μM) [%] | % Viability ([1]; human, 72 h, 25 μM) [%] | % Melanin [2, 4] [%] | OD405 nm ([2]; 0.25 μM, control 0.113) | % Increase in Melanin [2, 5] [%] | % Increase in Melanin ([2]; 3.125 μM) [%] | % Melanin ([2]; 3.125 μM) [%] | % Increase in Melanin ([2]; 12.5 μM) [%] | % Melanin ([2]; 12.5 μM) [%] | Normalized melanin content ([2]; 12.5 μM) | OD405 nm ([2]; 12.5 μM, control 0.165) | % Increase in Melanin ([2]; 25 μM) [%] | % Melanin ([2]; 25 μM) [%] | Normalized melanin content ([2]; 25 μM) | OD405 nm ([2]; 25 μM, control 0.165) | Normalized melanin content at 0.25 µM ([2]; 0.25 μM) [%] | other results
O=C(N[C@@H](CO)C(=O)N[C@@H](Cc1ccc(O)cc1)C(=O)OCc1ccccc1)OCc1ccccc1 [Compound 1, Benzyl (2S)-2-[((2S)-2-{[(benzyloxy)carbonyl]amino}-3-hydroxypropanoyl)amino]-3-(4-hydroxyphenyl)propanoate.] (HELM PEPTIDE1{[O=C(OCc1ccccc1)[*:2]].S.Y.[c1ccc(CO[*:1])cc1]}$$$$V2.0) | 3.5 | 107 | 91.0 | 95.5 | 88.7 | 90.0 | 135.4 | 0.153 | 26.5 | 17.9 | 107.3 | 33.3 | 118.2 | 133.3 | 0.195 | 34.0 | 120.6 | 134.0 | 0.199 | 126 | Normalized melanin content ([2]; 3.125 μM): 117.9; OD405 nm ([2]; 3.125 μM, control 0.165): 0.177; % Increase in Melanin ([2]; 6.25 μM): 20.6%; % Melanin ([2]; 6.25 μM): 115.2%; Normalized melanin content ([2]; 6.25 μM): 120.6; OD405 nm ([2]; 6.25 μM, control 0.165): 0.190
CC(C)Cn1c(=O)n(C)c(=O)c2[nH]cnc21 [IBMX, 3-isobutyl-1-methylxanthine, reference compound] | – | – | – | – | 100.1 | 95.2 | – | – | – | – | – | 16.6 | 116.7 | 116.6 | 0.193 | 24.8 | 118.8 | 124.8 | 0.196 | – | % Viability ([1]; human, 72 h, 50 μM): 91.0%; % Increase in Melanin ([2]; 50 μM): 28.2%; % Melanin ([2]; 50 μM): 116.7%; Normalized melanin content ([2]; 50 μM): 128.2; OD405 nm ([2]; 50 μM, control 0.165): 0.193
C=C[C@@]1(C)CC(=O)[C@]2(O)[C@@]3(C)[C@@H](O)CCC(C)(C)[C@@H]3[C@H](O)[C@H](OC(C)=O)[C@@]2(C)O1 [Forskolin, reference compound] | – | – | – | – | – | – | – | – | – | – | – | – | – | – | – | – | – | – | – | – | % Viability ([1]; 2.5 μM, 72 hours): 95.6%; % Viability ([1]; 5 μM, 72 hours): 94.8%; % Viability ([1]; 10 μM, 72 hours): 90.5%; % Increase in Melanin ([2]; 2.5 μM): 16.6%; % Melanin ([2]; 2.5 μM): 111.5%; Normalized melanin content ([2]; 2.5 μM): 116.6; OD405 nm ([2]; 2.5 μM, control 0.165): 0.184; % Increase in Melanin ([2]; 5 μM): 29.2%; % Melanin ([2]; 5 μM): 122.5%; Normalized melanin content ([2]; 5 μM): 129.2; OD405 nm ([2]; 5 μM, control 0.165): 0.202; % Increase in Melanin ([2]; 10 μM): 36.7%; % Melanin ([2]; 10 μM): 123.7%; Normalized melanin content ([2]; 10 μM): 136.7; OD405 nm ([2]; 10 μM, control 0.165): 0.204
C[C@@H](O)[C@H](NC(=O)OCc1ccccc1)C(=O)N[C@@H](Cc1ccc(O)cc1)C(N)=O [Compound 4, Benzyl (1S,2R)-1-({[(1S)-2-amino-1-(4-hydroxybenzyl)-2-oxoethyl]amino}carbonyl)-2-hydroxypropylcarbamate.] (HELM PEPTIDE1{[O=C(OCc1ccccc1)[*:2]].T.Y.[am]}$$$$V2.0) | 0.8 | 110 | – | – | – | – | 102.7 | 0.116 | −6.6 | – | – | – | – | – | – | – | – | – | – | 93.4 | –

Further lines, with some results ahead:

% increase in Tyrosinase activity [3] [%] | Structure (SMILES) | % Viability ([1]; human, 72 h, 0.25 μM) [%] | % Viability ([1]; human, 72 h, 3.125 μM) [%] | % Viability ([1]; human, 72 h, 6.25 μM) [%] | % Viability ([1]; human, 72 h, 12.5 μM) [%] | % Viability ([1]; human, 72 h, 25 μM) [%] | % Melanin [2, 4] [%] | OD405 nm ([2]; 0.25 μM, control 0.113) | % Increase in Melanin [2, 5] [%] | % Increase in Melanin ([2]; 3.125 μM) [%] | % Melanin ([2]; 3.125 μM) [%] | % Increase in Melanin ([2]; 12.5 μM) [%] | % Melanin ([2]; 12.5 μM) [%] | Normalized melanin content ([2]; 12.5 μM) | OD405 nm ([2]; 12.5 μM, control 0.165) | % Increase in Melanin ([2]; 25 μM) [%] | % Melanin ([2]; 25 μM) [%] | Normalized melanin content ([2]; 25 μM) | OD405 nm ([2]; 25 μM, control 0.165) | Normalized melanin content at 0.25 µM ([2]; 0.25 μM) [%] | other results
1.8 | CSCC[C@H](NC(=O)OCc1ccccc1)C(=O)N[C@@H](Cc1c[nH]c2ccccc12)C(=O)O [Compound 3, (2S)-2-{[(2S)-2-{[(benzyloxy)carbonyl]amino}-4-(methylthio)butanoyl]amino}-3-(1H-indol-3-yl)propanoic acid] (HELM PEPTIDE1{[O=C(OCc1ccccc1)[*:2]].M.W}$$$$V2.0) | 99 | – | – | – | – | 106.2 | 0.120 | 7.3 | – | – | – | – | – | – | – | – | – | – | 107 | Increase in melanin content of melanocytes (in words) [2]: not
2.0 | CC(C)[C@H](NC(=O)OCc1ccccc1)C(=O)N[C@@H](Cc1ccc(O)cc1)C(N)=O [Compound 2, Benzyl (1S)-1-({[(1S)-2-amino-1-(4-hydroxybenzyl)-2-oxoethyl]amino}carbonyl)-2-methylpropylcarbamate] (HELM PEPTIDE1{[O=C(OCc1ccccc1)[*:2]].V.Y.[am]}$$$$V2.0) | 81 | 90.5 | 99.8 | 95.8 | 92.5 | 110.6 | 0.125 | 36.5 | 23.2 | 111.5 | 26.5 | 121.2 | 126.5 | 0.200 | 42.2 | 131.5 | 142.2 | 0.217 | 136 | % Viability ([1]; human, 72 h, 1.5 μM): 91.3%; % Viability ([1]; human, 72 h, 50 μM): 100.6%; % Increase in Melanin ([2]; 1.5 μM): 16.9%; % Melanin ([2]; 1.5 μM): 106.7%; Normalized melanin content ([2]; 1.5 μM): 116.9; OD405 nm ([2]; 1.5 μM, control 0.165): 0.176; Normalized melanin content ([2]; 3.125 μM): 123.2; OD405 nm ([2]; 3.125 μM, control 0.165): 0.184; % Increase in Melanin ([2]; 6.25 μM): 14.7%; % Melanin ([2]; 6.25 μM): 114.5%; Normalized melanin content ([2]; 6.25 μM): 114.7; OD405 nm ([2]; 6.25 μM, control 0.165): 0.189; % Increase in Melanin ([2]; 50 μM): 25.8%; % Melanin ([2]; 50 μM): 126.6%; Normalized melanin content ([2]; 50 μM): 125.8; OD405 nm ([2]; 50 μM, control 0.165): 0.209; Increase in melanin content of melanocytes (in words) [2]: substantial increase in melanin content; Extent of increase in melanin content versus reference molecules (in words) ([2]; data of Table 3): comparable to known standard reference molecules (Forskolin and IBMX)
